According to patent publication US9133207B2, “Tetrandrine derivatives with substituted 5-carbon, preparation method and use thereof” (Hangzhou Bensheng Pharmaceutical Co., Ltd., priority 2011, dated 2015):
In brackets after ≈: the same amount, converted by molar mass.

How the values were obtained:
[1] = test system: H9 (acute lymphoblastic leukemia, ALL); assay: Leukemia cell growth inhibition, MTT, 72 h (Example 5); type: cell-based, human; settings: Homo sapiens; 72 h, MTT
Description: (§1) Leukemia cell lines: leukemia cell lines: K562/adr (drug-resistant, chronic myeloid leukemia, CML), NB4 (acute promyelocytic leukemia, AML), Kasumi-1 (acute myeloid leukemia M2 type, AML-M2), Jurkat (acute lymphoblastic leukemia, ALL), all of which are donated by Cancer Research Institute of Zhejiang University, China; and H9 (acute lymphoblastic leukemia, ALL), which is purchased from China Center for Type Culture Collection.
(§2) Reagents: The standard sample of tetrandrine (TTD) is purchased from Ci Yuan Biotechnology Co., Ltd., Shaanxi, China; and the 5-substituted tetrandrine derivatives of the present invention.
(§3) Obtaining 6000 well-growing leukemia cells and inoculating them into wells of a 96-well cell culture plate. The culture medium is a 1640 cell culture medium containing 10% fetal bovine serum. After adding the tetrandrine derivatives of different concentrations and mixing uniformly, placing the plate in a carbon dioxide cell incubator (5% CO2) at 37° C. and incubating for 72 hours. Then the viable cell concentration is determined by the MTT method.

[2] = test system: Jurkat (acute lymphoblastic leukemia, ALL); assay: as above; type: cell-based, human; settings: Homo sapiens, Jurkat; 72 h, MTT
Description: as §1, §2, §3

[3] = test system: K562/adr (drug-resistant, chronic myeloid leukemia, CML); assay: as above; type: cell-based, human; settings: Homo sapiens, K562/Adr; 72 h, MTT
Description: as §1, §2, §3

[4] = test system: Kasumi-1 (acute myeloid leukemia M2 type, AML-M2); assay: as above; type: cell-based, human; settings: Homo sapiens, Kasumi 1
Description: as §1, §2, §3

[5] = test system: NB4 (acute promyelocytic leukemia, AML); assay: as above; type: cell-based, human; settings: Homo sapiens; 72 h, MTT
Description: as §1, §2, §3

[6] = test system: RPMI8226 (multiple myeloma); assay: Multiple myeloma cell growth inhibition, MTT, 72 h (Example 6); type: cell-based, human; settings: Homo sapiens, RPMI-8226; 72 h, MTT, RPMI8226
Experimental: Multiple myeloma and lymphoma cell lines: RPMI8226 (multiple myeloma), purchased from Fuxiang Bio-tech Co. Ltd., Shanghai, China.
(§4) Reagents: the same as in Example 5.
as §3, with “incubated” for “incubating”

[7] = test system: CaES-17 (esophageal cancer cell); assay: Solid tumor cell growth inhibition, MTT, 72 h (Example 7); type: cell-based, human; settings: Homo sapiens, CaEs17; 72 h, MTT, CAES-17
Experimental: (§5) Human solid tumor cell lines: Hep-2 (laryngeal carcinoma), A549 (human lung cancer), CaES-17 (esophageal cancer cell), PC-3 (prostate cancer), CNE (nasopharyngeal carcinoma cell) and SK-OV-3 (ovarian cancer cell), all of which are purchased from China Center For Type Culture Collection; RKO (human colon adenocarcinoma cell), MGC 803 (human gastric cancer cell), MG63 (osteosarcoma), and U87 MG (malignant glioma cell), all of which are purchased from Fuxiang Bio-tech Co. Ltd., Shanghai, China; PANC-1 (pancreatic cancer), Huh? (human liver cancer cell), Becap37 (human breast cancer cell), and Hela (human cervical cancer cell), all of which are donated by Cancer Research Institute of Zhejiang University, China.
as §4
(§6) Obtaining 4000 well-growing human solid tumor cells and inoculating them into wells of a 96-well cell culture plate. The culture medium is DMEM High Glucose cell culture medium containing 10% fetal bovine serum. The plate is placed in a carbon dioxide cell incubator (5% CO2) at 37° C. and incubated for 24 hours. After been added with tetrandrine derivatives of different concentration and mixing uniformly, the plate is placed in a carbon dioxide cell incubator (5% CO2) at 37° C. and incubated for 72 hours. Then the viable cell concentration is determined by the MTT method and the cell viability (%) after drug treatment is calculated. In this experiment, the cell viability of control group (not treated with any compound) is set as 100%.

MG63 (osteosarcoma) = assay: as above; type: cell-based, human; settings: Homo sapiens; 72 h, MTT, MG-63
Experimental: as §5, §4, §6

[8] = test system: PANC-1 (pancreatic cancer); assay: as above; type: cell-based, human; settings: Homo sapiens; 72 h, MTT, PANC-1
Experimental: as §5, §4, §6

PC-3 (prostate cancer) = assay: as above; type: cell-based, human; settings: for IC50 / IC90: Homo sapiens, 72 h, MTT, PC-3
Experimental: as §5, §4, §6

A549 (human lung cancer) = assay: as above; type: cell-based; settings: for IC50 / IC90: Homo sapiens, 72 h, MTT, A549
Experimental: as §5, §4, §6

[9] = test system: Becap37 (human breast cancer cell); assay: as above; type: cell-based; settings: Homo sapiens; 72 h, MTT, Becap-37
Experimental: as §5, §4, §6

[10] = test system: Huh7 (human liver cancer cell); assay: as above; type: cell-based; settings: Homo sapiens; 72 h, MTT, Huh-7
Experimental: as §5, §4, §6

[11] = test system: MGC 803 (human gastric cancer cell); assay: as above; type: cell-based; settings: Homo sapiens
Experimental: as §5, §4, §6

[12] = test system: RKO (human colon adenocarcinoma cell); assay: as above; type: cell-based; settings: Homo sapiens; 72 h, MTT, RKO
Experimental: as §5, §4, §6

| IC50 [1] [µg/mL] | IC90 [1] [µg/mL] | IC50 [2] [µg/mL] | IC90 [2] [µg/mL] | IC50 [3] [µg/mL] | IC90 [3] [µg/mL] | IC50 [4] [µg/mL] | IC90 [4] [µg/mL] | IC50 [5] [µg/mL] | IC90 [5] [µg/mL] | IC50 [6] [µg/mL] | IC90 [6] [µg/mL] | IC50 [7] [µg/mL] | IC90 [7] [µg/mL] | IC50 (MG63 (osteosarcoma)) [µg/mL] | IC90 (MG63 (osteosarcoma)) [µg/mL] | IC50 [8] [µg/mL] | IC90 [8] [µg/mL] | IC50 (PC-3 (prostate cancer)) [µg/mL] | IC90 (PC-3 (prostate cancer)) [µg/mL] | SMILES | further results |
| --- | --- | --- | --- | --- | --- | --- | --- | --- | --- | --- | --- | --- | --- | --- | --- | --- | --- | --- | --- | --- | --- |
| 4.19 (≈ 6.03 µM) | 8.89 (≈ 12.8 µM) | 3.42 (≈ 4.92 µM) | 11.3 (≈ 16.2 µM) | 0.5 (≈ 0.72 µM) | 9.91 (≈ 14.3 µM) | 2 (≈ 2.88 µM) | 8 (≈ 11.5 µM) | 2.57 (≈ 3.7 µM) | 7.42 (≈ 10.7 µM) | 0.23 (≈ 0.331 µM) | 2.29 (≈ 3.3 µM) | 9.8 (≈ 14.1 µM) | 37.5 (≈ 54 µM) | 5.13 (≈ 7.38 µM) | 7.64 (≈ 11 µM) | 10.7 (≈ 15.4 µM) | 16 (≈ 23 µM) | 5.6 (≈ 8.06 µM) | 28 (≈ 40.3 µM) | COc1ccc2cc1Oc1ccc(cc1)C[C@H]1c3cc(c(OC)cc3CCN1C)Oc1c(OC)c(OC)c(COC(C)=O)c3c1[C@H](C2)N(C)CC3 [BS-TE-223] | IC50 (A549 (human lung cancer)): 4.45 µg/mL (≈ 6.4 µM); IC90 (A549 (human lung cancer)): 14.2 µg/mL (≈ 20.4 µM); IC50 [9]: 6.77 µg/mL (≈ 9.74 µM); IC90 [9]: 15 µg/mL (≈ 21.6 µM); IC50 [10]: 4.14 µg/mL (≈ 5.96 µM); IC90 [10]: 7.97 µg/mL (≈ 11.5 µM); IC50 [11]: 3.54 µg/mL (≈ 5.09 µM); IC90 [11]: 38.1 µg/mL (≈ 54.8 µM); IC50 [12]: 4.23 µg/mL (≈ 6.09 µM); IC90 [12]: 7.5 µg/mL (≈ 10.8 µM) |
| 0.7 (≈ 0.992 µM) | 1.44 (≈ 2.04 µM) | 1.35 (≈ 1.91 µM) | 4.96 (≈ 7.03 µM) | 0.44 (≈ 0.623 µM) | 7.2 (≈ 10.2 µM) | 0.52 (≈ 0.737 µM) | 3.11 (≈ 4.41 µM) | 0.29 (≈ 0.411 µM) | 2 (≈ 2.83 µM) | 0.006 (≈ 0.0085 µM) | 0.42 (≈ 0.595 µM) | 1.1 (≈ 1.56 µM) | 17 (≈ 24 µM) | 0.74 (≈ 1.05 µM) | 2.05 (≈ 2.9 µM) | 3.72 (≈ 5.27 µM) | 13.4 (≈ 19 µM) | 1.56 (≈ 2.21 µM) | 4.9 (≈ 6.94 µM) | COc1ccc2cc1Oc1ccc(cc1)C[C@H]1c3cc(c(OC)cc3CCN1C)Oc1c(OC)c(OC)c(CN3CCCC3)c3c1[C@H](C2)N(C)CC3 [BS-TE-305] | anti-PC-3 activity increase over tetrandrine (PC-3 (prostate cancer); compared with tetrandrine): ~4 fold; IC50 (A549 (human lung cancer)): 1 µg/mL (≈ 1.42 µM); IC90 (A549 (human lung cancer)): 5.25 µg/mL (≈ 7.44 µM); anti-A549 activity increase over tetrandrine (A549 (human lung cancer); compared with tetrandrine): ~3 fold; IC50 [9]: 1.44 µg/mL (≈ 2.04 µM); IC90 [9]: 6.24 µg/mL (≈ 8.84 µM); IC50 [10]: 1.28 µg/mL (≈ 1.81 µM); IC90 [10]: 2.3 µg/mL (≈ 3.26 µM); IC50 [11]: 1 µg/mL (≈ 1.42 µM); IC90 [11]: 10 µg/mL (≈ 14.2 µM); IC50 [12]: 0.66 µg/mL (≈ 0.935 µM); IC90 [12]: 1.65 µg/mL (≈ 2.34 µM) |
| 0.87 (≈ 1.21 µM) | 1.99 (≈ 2.76 µM) | 3.08 (≈ 4.27 µM) | 13.2 (≈ 18.4 µM) | 0.25 (≈ 0.346 µM) | 7.8 (≈ 10.8 µM) | 1 (≈ 1.39 µM) | 4.79 (≈ 6.64 µM) | 0.73 (≈ 1.01 µM) | 4.35 (≈ 6.03 µM) | 0.07 (≈ 0.097 µM) | 0.42 (≈ 0.582 µM) | 1.1 (≈ 1.52 µM) | 18.8 (≈ 26.1 µM) | 0.82 (≈ 1.14 µM) | 2.32 (≈ 3.21 µM) | 3.47 (≈ 4.81 µM) | 8.88 (≈ 12.3 µM) | 2.88 (≈ 3.99 µM) | 6.99 (≈ 9.68 µM) | COc1ccc2cc1Oc1ccc(cc1)C[C@H]1c3cc(c(OC)cc3CCN1C)Oc1c(OC)c(OC)c(CN3CCOCC3)c3c1[C@H](C2)N(C)CC3 [BS-TE-307] | IC50 (A549 (human lung cancer)): 2.3 µg/mL (≈ 3.19 µM); IC90 (A549 (human lung cancer)): 8 µg/mL (≈ 11.1 µM); IC50 [9]: 1.79 µg/mL (≈ 2.48 µM); IC90 [9]: 6.94 µg/mL (≈ 9.61 µM); IC50 [10]: 3 µg/mL (≈ 4.16 µM); IC90 [10]: 4.9 µg/mL (≈ 6.79 µM); IC50 [11]: 3.74 µg/mL (≈ 5.18 µM); IC90 [11]: 14.1 µg/mL (≈ 19.6 µM); IC50 [12]: 0.95 µg/mL (≈ 1.32 µM); IC90 [12]: 3.27 µg/mL (≈ 4.53 µM) |
